Values quoted from earlier work as cited in US11596597B2, “Depot formulation” (Cipla Limited, priority 2018, dated 2023).

Conditions: stated in words, no test described

solubility in water | Molecule
freely soluble | 7,8,9,10-tetrahydro-6,10-methano-6H-pyrazino [2,3-h] [3]-benzazepine, (2R, 3R)-2,3-dihydroxybutanedioate [Varenicline salt]
practically insoluble | c1cnc2cc3c(cc2n1)[C@@H]1CNC[C@H]3C1 [varenicline base]
